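Five compound concentrations were applied to cells in 96-well plates for 48 hours; endpoints were derived by simple linear interpolation of the resulting dose-response curve. At the GI50, growth is halved.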 The source made the active and inactive calls. Cut-off read from the data, not from the text of the source: active = GI50 up to about 1.1 µM and inactive = higher.
Legend:
Test in all cases: NCI anticancer screen, dose series, 48 h
CCRF-CEM = system: CCRF-CEM
EKVX = system: EKVX
HCC 2998 = system: HCC 2998
HCT-116 = system: HCT-116
HCT-15 = system: HCT-15
M14 = system: M14
Malme-3M = system: Malme-3M
NCI-H460 = system: NCI-H460
NCI-H522 = system: NCI-H522
OVCAR-3 = system: OVCAR-3
OVCAR-8 = system: OVCAR-8
RPMI-8226 = system: RPMI-8226
SF-268 = system: SF-268
SF-295 = system: SF-295
SK-MEL-5 = system: SK-MEL-5
U-251 = system: U-251
UACC-257 = system: UACC-257
UACC-62 = system: UACC-62
UO-31 = system: UO-31
LOX IMVI = system: LOX IMVI

For `O=c1c2ccccc2nc(-c2ccc(Br)cc2)n1NC1OC(CO)C(O)C(O)C1O` (stereo unspecified), the GI50 (CCRF-CEM) was 32.8 µM (inactive), the GI50 (EKVX) was 78.3 µM (inactive) and the GI50 (HCC 2998) was 82.4 µM (inactive). The GI50 (HCT-116) was > 100 µM (inactive), the GI50 (HCT-15) was greater than 100 µM and the GI50 (M14) was > 100 µM (inactive). The GI50 (Malme-3M) was > 100 µM (inactive), the GI50 (NCI-H460) was > 100 µM (inactive) and the GI50 (NCI-H522) was 81.7 µM (inactive). For the same compound, the GI50 (OVCAR-3) was 31.3 µM (inactive), the GI50 (OVCAR-8) was 91.4 µM (inactive) and the GI50 (RPMI-8226) was 72.9 µM (inactive). The GI50 (SF-268) was 69.5 µM (inactive), the GI50 (SF-295) was > 100 µM (inactive) and the GI50 (SK-MEL-5) was 75.9 µM (inactive). For the same compound, the GI50 (U-251) was > 100 µM (inactive), the GI50 (UACC-257) was > 100 µM (inactive) and the GI50 (UACC-62) was 79.6 µM (inactive). For the same compound, the GI50 (UO-31) was 78 µM (inactive).
`COc1ccc2c(OC)c3ccoc3nc2c1O` was tested, and the GI50 (CCRF-CEM) was 43.3 µM (inactive), the GI50 (EKVX) was 53.8 µM (inactive) and the GI50 (HCC 2998) was > 100 µM (inactive). For the same compound, the GI50 (HCT-116) was > 100 µM (inactive), the GI50 (HCT-15) was 37 µM and the GI50 (M14) was > 100 µM (inactive). The GI50 (Malme-3M) was > 100 µM (inactive), the GI50 (NCI-H460) was 85.9 µM (inactive) and the GI50 (NCI-H522) was > 100 µM (inactive). For the same compound, the GI50 (OVCAR-3) was > 100 µM (inactive), the GI50 (OVCAR-8) was > 100 µM (inactive) and the GI50 (RPMI-8226) was 33.7 µM (inactive). The GI50 (SF-268) was > 100 µM (inactive), the GI50 (SF-295) was > 100 µM (inactive) and the GI50 (SK-MEL-5) was > 100 µM (inactive). The GI50 (U-251) was > 100 µM (inactive), the GI50 (UACC-257) was 39.5 µM (inactive) and the GI50 (UACC-62) was 77.8 µM (inactive). The GI50 (UO-31) was 63.1 µM (inactive).
For `CN(C)/N=C(/c1nc2ccc(Cl)cc2nc1O)C(O)c1ccc(C(O)/C(=N\N(C)C)c2nc3ccc(Cl)cc3nc2O)cc1` (stereo unspecified), the GI50 (CCRF-CEM) was 6.43 µM (inactive), the GI50 (EKVX) was > 100 µM (inactive) and the GI50 (HCC 2998) was > 100 µM (inactive). For the same compound, the GI50 (HCT-116) was > 100 µM (inactive), the GI50 (M14) was > 100 µM (inactive) and the GI50 (Malme-3M) was > 100 µM (inactive). The GI50 (NCI-H460) was > 100 µM (inactive), the GI50 (NCI-H522) was > 100 µM (inactive) and the GI50 (OVCAR-3) was > 100 µM (inactive). For the same compound, the GI50 (OVCAR-8) was > 100 µM (inactive), the GI50 (RPMI-8226) was 14.1 µM (inactive) and the GI50 (SF-268) was > 100 µM (inactive). The GI50 (SF-295) was > 100 µM (inactive), the GI50 (SK-MEL-5) was > 100 µM (inactive) and the GI50 (UACC-257) was > 100 µM (inactive). For the same compound, the GI50 (UACC-62) was > 100 µM (inactive) and the GI50 (UO-31) was > 100 µM (inactive).
`CN(C)Cc1cc(/N=N/c2ccc(Cl)cc2)ccc1OC(=O)c1ccccc1` was tested, and the GI50 (CCRF-CEM) was 15.3 µM (inactive), the GI50 (EKVX) was 12.1 µM (inactive) and the GI50 (HCC 2998) was 15.3 µM (inactive). The GI50 (HCT-116) was 16.4 µM (inactive), the GI50 (HCT-15) was 12.9 µM and the GI50 (LOX IMVI) was 12.4 µM (inactive). For the same compound, the GI50 (Malme-3M) was 16.7 µM (inactive), the GI50 (NCI-H460) was 15.3 µM (inactive) and the GI50 (NCI-H522) was 12.2 µM (inactive). For the same compound, the GI50 (OVCAR-3) was 15.7 µM (inactive), the GI50 (OVCAR-8) was 17 µM (inactive) and the GI50 (RPMI-8226) was 15.6 µM (inactive). For the same compound, the GI50 (SF-268) was 19.2 µM (inactive), the GI50 (SF-295) was 14.8 µM (inactive) and the GI50 (SK-MEL-5) was 14.9 µM (inactive). For the same compound, the GI50 (U-251) was 15 µM (inactive), the GI50 (UACC-257) was 19.2 µM (inactive) and the GI50 (UO-31) was 12.6 µM (inactive).
In the case of `CCC1=CCN(c2ccc(C)cc2)OC1c1ccc(OC)cc1` (stereo unspecified), the GI50 (CCRF-CEM) is reported as 56.6 µM (inactive), the GI50 (EKVX) is reported as > 100 µM (inactive) and the GI50 (HCC 2998) is reported as 70.5 µM (inactive). For the same compound, the GI50 (HCT-116) was 59.6 µM (inactive), the GI50 (HCT-15) was 47 µM and the GI50 (LOX IMVI) was > 100 µM (inactive). For the same compound, the GI50 (M14) was 52.6 µM (inactive), the GI50 (Malme-3M) was 66.4 µM (inactive) and the GI50 (NCI-H460) was > 100 µM (inactive). The GI50 (NCI-H522) was 23.6 µM (inactive), the GI50 (OVCAR-3) was > 100 µM (inactive) and the GI50 (OVCAR-8) was > 100 µM (inactive). For the same compound, the GI50 (RPMI-8226) was 43.3 µM (inactive), the GI50 (SF-268) was > 100 µM (inactive) and the GI50 (SF-295) was 92.7 µM (inactive). The GI50 (U-251) was 73.3 µM (inactive), the GI50 (UACC-257) was 37 µM (inactive) and the GI50 (UACC-62) was > 100 µM (inactive). For the same compound, the GI50 (UO-31) was 90.6 µM (inactive).
For `C#CCN1C(=O)CN2C(Cl)(Cl)C2(c2ccccc2)c2cc(Cl)ccc21` (stereo unspecified), the GI50 (CCRF-CEM) was 44.3 µM (inactive), the GI50 (EKVX) was 50.4 µM (inactive) and the GI50 (HCC 2998) was 31.2 µM (inactive). For the same compound, the GI50 (HCT-116) was 42.2 µM (inactive), the GI50 (HCT-15) was 40.6 µM and the GI50 (LOX IMVI) was 88.1 µM (inactive). For the same compound, the GI50 (M14) was 49.1 µM (inactive), the GI50 (Malme-3M) was > 100 µM (inactive) and the GI50 (NCI-H460) was 54.8 µM (inactive). The GI50 (NCI-H522) was 35.3 µM (inactive), the GI50 (OVCAR-3) was 87.5 µM (inactive) and the GI50 (OVCAR-8) was > 100 µM (inactive). For the same compound, the GI50 (RPMI-8226) was 70.5 µM (inactive), the GI50 (SF-268) was 82 µM (inactive) and the GI50 (SF-295) was 65.8 µM (inactive). For the same compound, the GI50 (SK-MEL-5) was 51.3 µM (inactive), the GI50 (U-251) was > 10 µM (inactive) and the GI50 (UACC-257) was 36.3 µM (inactive). The GI50 (UO-31) was 68.1 µM (inactive).
